For this assay, the system named is MX-1 breast xenograft, intrarenal, nude mice, tumor weight. Nature of the assay: NCI In Vivo Anticancer Drug Screen. Data for tumor model Human Mammary Carcinoma MX-1 Xenograft (intrarenal inoculation) in NU/NU BALB/C (nude) mice. The note with it: endpoint: mean tumor weight change, higher = larger tumour. Put shortly: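 Efficacy in vivo: tumor measurement or survival of treated animals divided by that of vehicle-dosed controls.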

Values joined by “and” are separate entries in the source; they are usually repeats but may differ in a detail not shown here. Identical values can stand only once. Results filed as inconclusive are left out.

With `Oc1cc(O)cc(/C=C/c2ccc(O)c(O)c2)c1`, the T/C was 90 % of control (dose: 25.0 mg/kg/injection, schedule: Q04DX003 (ip), vehicle: DMSO); 123 % of control (dose: 37.5 mg/kg/injection, schedule: Q04DX003 (ip), vehicle: DMSO); 69 % of control (dose: 50.0 mg/kg/injection, schedule: Q04DX003 (ip), vehicle: DMSO); 71 % of control (dose: 75.0 mg/kg/injection, schedule: Q04DX003 (ip), vehicle: DMSO); 48 % of control (dose: 100.0 mg/kg/injection, schedule: Q04DX003 (ip), vehicle: DMSO); 67 % of control (dose: 150.0 mg/kg/injection, schedule: Q04DX003 (ip), vehicle: DMSO).

For `c1ccc2c3c(c4c(c2c1)CN(C1CCCCC1)CO4)OCN(C1CCCCC1)C3`, the T/C is, setting by setting: (dose: 37.5 mg/kg/injection, schedule: Q04DX003 (ip), vehicle: water) 108 % of control; (dose: 75.0 mg/kg/injection, schedule: Q04DX003 (ip), vehicle: water) 82 % of control and 88 % of control; (dose: 150.0 mg/kg/injection, schedule: Q04DX003 (ip), vehicle: water) 59 % of control; (dose: 300.0 mg/kg/injection, schedule: Q04DX003 (ip), vehicle: water) 111 % of control.

As to `C=CC(C)(C)n1cc(C2=C(O)C(=O)C(c3cn(C(C)(C)C=C)c4ccccc34)=C(O)C2=O)c2ccccc21`, the T/C is 80 % of control (dose: 50.0 mg/kg/injection, schedule: Q04DX003 (sc), vehicle: Klucel (hydroxypropylcellulose) (HPC)); 96 % of control (dose: 100.0 mg/kg/injection, schedule: Q04DX003 (sc), vehicle: Klucel (hydroxypropylcellulose) (HPC)); 76 % of control (dose: 200.0 mg/kg/injection, schedule: Q04DX003 (sc), vehicle: Klucel (hydroxypropylcellulose) (HPC)); 74 % of control (dose: 400.0 mg/kg/injection, schedule: Q04DX003 (sc), vehicle: Klucel (hydroxypropylcellulose) (HPC)).

As to `NC(=O)c1[nH]cnc1O`, the T/C is, setting by setting: (dose: 50.0 mg/kg/injection, schedule: Q04DX003 (ip), vehicle: saline with Tween-80) 96 % of control; (dose: 100.0 mg/kg/injection, schedule: Q04DX003 (ip), vehicle: saline with Tween-80) 112 % of control and 119 % of control; (dose: 400.0 mg/kg/injection, schedule: Q04DX003 (ip), vehicle: saline with Tween-80) 81 % of control; (dose: 800.0 mg/kg/injection, schedule: Q04DX003 (ip), vehicle: saline with Tween-80) 69 % of control.

As to `S=C1CCCCN1`, the T/C is, setting by setting: (dose: 150.0 mg/kg/injection, schedule: Q04DX003 (ip), vehicle: distilled water + Tween-80 + alcohol) 82 % of control; (dose: 300.0 mg/kg/injection, schedule: Q04DX003 (ip), vehicle: distilled water + Tween-80 + alcohol) 72 % of control.

Turning to `COC1C(CO)OC(n2cnc3c(=S)nc(N)[nH]c32)C1O` (configuration not stated), the T/C (dose: 150.0 mg/kg/injection, schedule: Q04DX003 (sc), vehicle: Klucel (hydroxypropylcellulose) (HPC)) was 105 % of control and the T/C (dose: 300.0 mg/kg/injection, schedule: Q04DX003 (sc), vehicle: Klucel (hydroxypropylcellulose) (HPC)) is 48 % of control.

`C[C@]12CC[C@H]3[C@@H](CCC4=C[C@@H](OC5OCC(OC6OC(CO)C(O)C(O)C6O)C(O)C5O)CC[C@@]43C=O)[C@@]1(O)CCC2C1=CC(=O)OC1` (some centres not stated): the T/C (dose: 15.0 mg/kg/injection, schedule: Q04DX003 (sc), vehicle: Klucel (hydroxypropylcellulose) (HPC)) is 118 % of control.

In the case of `Nc1ccn([C@@H]2C=C(CO)[C@@H](O)[C@H]2O)c(=O)n1`, the T/C runs as follows: (dose: 0.5 mg/kg/injection, schedule: Q01DX009 (ip), vehicle: saline) 26 % of control; (dose: 2.0 mg/kg/injection, schedule: Q01DX009 (ip), vehicle: saline) 3 % of control.

With `Cc1cc(N)c2ccccc2[n+]1CCCCCCCCCC[n+]1c(C)cc(N)c2ccccc21`, the T/C runs as follows: (dose: 0.75 mg/kg/injection, schedule: Q01DX010 (ip), vehicle: dextrose) 89 % of control; (dose: 1.5 mg/kg/injection, schedule: Q01DX010 (ip), vehicle: dextrose) 79 % of control; (dose: 2.0 mg/kg/injection, schedule: Q01DX010 (ip), vehicle: dextrose) 47 % of control; (dose: 3.0 mg/kg/injection, schedule: Q01DX010 (ip), vehicle: dextrose) 41 % of control.

In the case of `CCOC(=O)Nc1cc2c(c(N)n1)N=C(c1ccc3ccccc3c1)CN2`, the T/C was 73 % of control (dose: 3.75 mg/kg/injection, schedule: Q04DX003 (ip), vehicle: saline with Tween-80); 81 % of control (dose: 7.5 mg/kg/injection, schedule: Q04DX003 (ip), vehicle: saline with Tween-80); 44 % of control (dose: 15.0 mg/kg/injection, schedule: Q04DX003 (ip), vehicle: saline with Tween-80); 34 % of control (dose: 30.0 mg/kg/injection, schedule: Q04DX003 (ip), vehicle: saline with Tween-80).

With `O=C1N[C@H]2[C@H](O)[C@H](O)[C@@H](O)[C@H](O)[C@@H]2c2cc3c(c(O)c21)OCO3`, the T/C (dose: 12.5 mg/kg/injection, schedule: Q04DX003 (ip), vehicle: saline + alcohol) is 72 % of control.

As for `C=CCCC(=O)CCCC(=O)O[C@@H]1[C@@H]2[C@H](CC1(C)C)[C@H](O)[C@@]13O[C@@H]1[C@H](O)[C@@]1(CO1)[C@@]23C`, the T/C was 79 % of control (dose: 0.4 mg/kg/injection, schedule: Q04DX003 (ip), vehicle: Klucel (hydroxypropylcellulose) (HPC)); 82 % of control (dose: 0.8 mg/kg/injection, schedule: Q04DX003 (ip), vehicle: Klucel (hydroxypropylcellulose) (HPC)); 92 % of control (dose: 1.6 mg/kg/injection, schedule: Q04DX003 (ip), vehicle: Klucel (hydroxypropylcellulose) (HPC)); 81 % of control (dose: 3.2 mg/kg/injection, schedule: Q04DX003 (ip), vehicle: Klucel (hydroxypropylcellulose) (HPC)); 120 % of control (dose: 100.0 micrograms/kg/injection, schedule: Q04DX003 (ip), vehicle: Klucel (hydroxypropylcellulose) (HPC)); 97 % of control (dose: 200.0 micrograms/kg/injection, schedule: Q04DX003 (ip), vehicle: Klucel (hydroxypropylcellulose) (HPC)). Moreover, the T/C was 89 % of control (dose: 400.0 micrograms/kg/injection, schedule: Q04DX003 (ip), vehicle: Klucel (hydroxypropylcellulose) (HPC)) and 121 % of control (dose: 800.0 micrograms/kg/injection, schedule: Q04DX003 (ip), vehicle: Klucel (hydroxypropylcellulose) (HPC)).

Take `CO[C@H]1C[C@@H]2CC[C@@H](C)[C@@](O)(O2)C(=O)C(=O)N2CCCC[C@H]2C(=O)O[C@H]([C@H](C)C[C@@H]2CC[C@@H](O)[C@H](OC)C2)CC(=O)[C@H](C)C=C(C)[C@@H](O)[C@@H](OC)C(=O)[C@H](C)C[C@H](C)/C=C/C=C/C=C1C`: the T/C was 30 % of control (dose: 100.0 mg/kg/injection, schedule: Q01DX010 (sc), vehicle: saline with Tween-80); 22 % of control (dose: 200.0 mg/kg/injection, schedule: Q01DX010 (sc), vehicle: saline with Tween-80); 54 % of control (dose: 400.0 mg/kg/injection, schedule: Q01DX010 (sc), vehicle: saline with Tween-80); 54 % of control (dose: 800.0 mg/kg/injection, schedule: Q01DX010 (sc), vehicle: saline with Tween-80).

On to `CN(Cc1cnc2nc(N)nc(N)c2n1)c1ccc(C(=O)NC(CCC(=O)OC(C)(C)C)C(=O)O)cc1` (configuration not stated), for which the T/C reads like this: (dose: 25.0 mg/kg/injection, schedule: Q03HX015 (ip), vehicle: sodium bicarbonate) 62 % of control; (dose: 50.0 mg/kg/injection, schedule: Q03HX015 (ip), vehicle: sodium bicarbonate) 110 % of control; (dose: 100.0 mg/kg/injection, schedule: Q03HX015 (ip), vehicle: sodium bicarbonate) 54 % of control; (dose: 200.0 mg/kg/injection, schedule: Q03HX015 (ip), vehicle: sodium bicarbonate) 116 % of control.

As to `CN(N=O)C(N)=O`, the T/C is 80 % of control (dose: 25.0 mg/kg/injection, schedule: Q04DX003 (sc), vehicle: saline); 9 % of control (dose: 50.0 mg/kg/injection, schedule: Q04DX003 (sc), vehicle: saline with Tween-80); 26 % of control (dose: 50.0 mg/kg/injection, schedule: Q04DX003 (sc), vehicle: saline).

`Cc1c(O)/c(=C\O)c2nc3c(=O)ccc(C(=O)NCCN(C)C)c3[nH]c2c1=O`: the T/C was 77 % of control (dose: 50.0 mg/kg/injection, schedule: Q04DX003 (ip), vehicle: other); 100 % of control (dose: 100.0 mg/kg/injection, schedule: Q04DX003 (ip), vehicle: other); 44 % of control (dose: 200.0 mg/kg/injection, schedule: Q04DX003 (ip), vehicle: other).

For the compound `C/C(=N\NC(=S)N1CC2CCC(CC2)C1)c1nccs1`, under “dose: 75.0 mg/kg/injection, schedule: Q04DX003 (ip), vehicle: saline with Tween-80”, the T/C was 78 % of control.

Source of the values: PubChem BioAssay AID298 (DTP/NCI, 2004).
